Test results published in US8551453B2, “Aromatic triamide-lanthanide complexes” (The Regents of the University of California, priority 2003, dated 2013).

How the values were obtained:
Type in all cases: physicochemical
[1] = Stability constants of the Eu complex by spectrophotometric titration
Description: FIG. 3 Spectrophotometric titration of a 1:1 ratio Eu:H22MeTIAM (9A): I=0.1, 25° C., optical path=1 cm.
(§1) The stability constants of the lanthanide complexes formed with the ligand H22TAMDIAM(9A) were estimated through spectrophotometric titrations.
(§2) The stability constants of the Eu and Tb complexes formed with the ligand H22TAMDIAM (9A) have been calculated form these experiments and the results are reported in the table.

[2] = Protonation constants of the ligand by spectrophotometric titration; details: free ligand; for PKa: IAM
[3] = Stability constants of the Tb complex by spectrophotometric titration
Source text: as §1, §2

In the case of H4H(2,2)TIAM [Compound 9A], the “Log[…]11-1” value ([1]; 1:1 Eu:ligand, I=0.1, 25° C.) is reported as 11.04(2), the “Log[…]11-2” value ([1]; 1:1 Eu:ligand, I=0.1, 25° C.) is reported as 1.98(10) and the “Log[…]110” value ([1]; 1:1 Eu:ligand, I=0.1, 25° C.) is reported as 17.29(1). For the same substance, the pKa ([1]; line Log[…]11-1) was 6.25, the pKa ([1]; line Log[…]11-2) was 9.06 and the pM ([1]; n = 3) was “Eu, pM = 18.2, n = 3”. The “Proton Affinity Log […]011” value ([2]; cumulative protonation constant, 1 proton (phenolic)) was 8.58(2), the “Proton Affinity Log […]012” value ([2]; cumulative protonation constant, 2 protons) was 15.17(3) and the “Proton Affinity Log […]013” value ([2]; cumulative protonation constant, 3 protons) was 20.38(4). For the same substance, the “Proton Affinity Log […]014” value ([2]; cumulative protonation constant, 4 protons) was 24.46(6), the PKa ([2]; first phenolic proton (line Log […]011)) was 8.58 and the PKa ([2]; fourth phenolic proton (line Log […]014)) was 4.08. The PKa ([2]; second phenolic proton (line Log […]012)) was 6.59, the PKa ([2]; third phenolic proton (line Log […]013)) was 5.21 and the “Log[…]11-1” value [3] was 12.60(7). For the same substance, the “Log[…]11-2” value [3] was 3.62(9), the “Log[…]110” value [3] was 17.85(3) and the pKa ([3]; line Log[…]11-1) was 5.25. For the same substance, the pKa ([3]; line Log[…]11-2) was 8.98 and the pM ([3]; n = 3) was “Tb, pM = 19.7,n = 3”.
